Data from patent US20190015400A1, “Antifungal Compositions” (priority 2017, published 2019).

What was measured:
[1] = test system: C. albicans ATCC 64124 (strain F); assay: MIC and checkerboard assay, azoles + compounds 1-5; type: cell-based, Candida albicans; details: combination compound 2 + POS
Protocol: These compounds were serially diluted (two-fold dilutions) horizontally on the plate in 100 μL of RPMI medium. A diluted yeast culture (25 μL of a fungal stock with OD600 of 0.125 in 10 mL of RPMI medium, which achieves a final inoculum size of around 1-5×10^3 CFU/mL) was plated across the plate (100 μL per well), making a final volume of 200 μL total per well.
The appropriate range of concentrations for each compound was determined based on their corresponding MIC values against each fungal strain. The inoculum size for yeast and filamentous fungi were the same as in the MIC experiments described in section 2.2. The 96-well plates were incubated at 35° C. for 48 h for yeasts and 72 h for the Aspergillus strain before visual inspection for growth. […] The combinational effect of the two tested compounds were considered synergistic (abbreviated SYN) if FICI<0.5, additive (abbreviated ADD) if 0.5<FICI<4, and antagonistic if FICI>4 (TABLES 2-4).

[2] = test system: C. albicans ATCC 64124 (strain F); assay: Time-kill assay, azoles + compound 2; type: cell-based, Candida albicans; details: drug alone at the concentration of the 8×MICcombo sample; 24 h
Protocol: Each sample was incubated at 35° C. with shaking at 200 rpm. At various time points (0, 3, 6, 9, 12, and 24 h), 100 μL aliquots were taken from each sample and serially diluted (10-fold dilutions) in sterile ddH2O. 100 μL of each dilution was spread onto PDA plates and incubated at 35° C. for 48 h before colony counts were determined (FIGS. 2A-B). At the end of the 24-h experiment, 50 μL of 1 mM sterile resazurin solution was added to each sample for visual comparison of growth. Each experiment was performed in duplicate.

BEAS-2B cells = assay: Mammalian cytotoxicity assay, azoles and compound 2; type: cell-based, human
From the text: (§1) David K. Orren (University of Kentucky, Lexington, Ky.) and Prof. David J. Feola (University of Kentucky, Lexington, Ky.), respectively.

HEK-293 cells = assay: as above; type: cell-based, human
From the text: as §1

[3] = test system: C. glabrata ATCC 2001 (strain H); assay: Time-kill assay, POS and EBA; type: cell-based, Candida glabrata; details: drug alone (POS at concentration used in MICcombination; NYT, AMB at 1×MIC), inoculum 10^5
Protocol: The protocol for time-kill assays followed methods previously described with minor modifications. Yeast cultures were grown overnight in YEPD medium at 35° C. with shaking at 200 rpm. A working stock of fungal cells was made by diluting cultures in 1640 medium to an OD600 of 0.125 (˜1×10^6 CFU/mL). From the working stock, 100 μL of cells was added to 4.9 mL of RPMI 1640 medium in sterile culture tubes, making the starting fungal cell concentration ˜1×10^5 CFU/mL. Drug was then added to the fungal cells. […] Treated fungal cultures were incubated in the culture tubes at 35° C. with 200 rpm shaking for 24 h. Samples were aliquoted from the different treatments at regular time points (0, 3, 6, 9, 12, and 24 h) and plated in duplicate. For each time point, cultures were vortexed, 100 μL of culture was aspirated, and 10-fold serial dilutions were made in sterile ddH2O. From the appropriate dilutions, 100 μL of fungal suspension was spread on PDA plates and incubated at 35° C. for 48 h before colony counts were determined. At 24 h, 50 μL of 1 mM resazurin in phosphate buffered saline (PBS) was added to the treatments and incubated at 35° C. with 200 rpm shaking for 2 h in the dark for visual inspection. […] Experiments were performed in duplicate.

[4] = test system: C. albicans ATCC 10231 (strain B) biofilm; assay: Biofilm disruption assay (XTT, SMIC90), POS and EBA; type: cell-based, Candida albicans; details: drug alone
Protocol: (§2) Biofilm disruption assays. […] Biofilm assays were performed in 96-well plates using XTT [2,3-bis(2-methoxy-4-nitro-5-sulfophenyl)-2H-tetrazolium-5-carboxanilide] to measure the viability of the biofilm as previously described. An overnight culture of yeast was grown at 35° C. in YEPD medium with shaking at 200 rpm. The overnight culture was diluted in RPMI 1640 medium to an OD600 between 0.12 and 0.15 to make a working stock. Working stock was transferred to the 96-well plate in 100 μL aliquots, leaving one column empty for the sterile control. The plates were incubated at 37° C. for 24 h to allow formation of the biofilm. The medium and planktonic cells from the plate were then aspirated. PBS was then used to wash any remaining planktonic cells off of the biofilm wells. 100 μL of PBS was aliquoted into wells and then removed. The wells were washed 3 times with PBS. […] Plates were incubated at 37° C. for 24 h. Finally, the plates were washed 3 times with PBS before adding 100 μL of XTT dye. The XTT was prepared by dissolving XTT at 0.5 mg/mL concentration in sterile PBS. Before adding to a plate, 1 μL of 10 mM menadione in acetone was added to 10 mL of the 0.5 mg/mL solution of XTT. After addition of XTT (containing menadione), the plates were incubated at 3 h at 37° C. in the dark. 80 μL of liquid from each well was transferred to a new plate. Plates were then read with a SpectraMax M5 plate reader (Molecular Devices, Sunnyvale, Calif., USA) for absorbance at 450 nm. For these experiments, we determined the sessile MIC (SMIC90), which is defined as the drug concentration required to inhibit the metabolic activity of biofilm by 90% compared to the growth control. The SMIC90 values were used to calculate the FICI as described above (TABLE 10). The plates used to determine the SMIC90 are provided in FIGS. 91A-H. Each assay was performed in duplicate.

[5] = test system: C. albicans ATCC 64124 (strain F) biofilm; assay: as above; type: cell-based, Candida albicans; details: drug alone
Protocol: as §2

[6] = POS 16 μg/mL + 32 μg/mL compound 2

CC[C@@H]([C@H](C)O)n1ncn(-c2ccc(N3CCN(c4ccc(OC[C@@H]5CO[C@@](Cn6cncn6)(c6ccc(F)cc6F)C5)cc4)CC3)cc2)c1=O [POS, posaconazole]
MIC in combination ([1]; MIC of the labelled drug): 4 µg/mL | fold reduction in MIC (combination vs alone) ([1]; reduction for the labelled drug): 8 fold | increase in CFU/mL [2]: about 1 order of magnitude | cell survival (BEAS-2B cells; POS 8 μg/mL + 32 μg/mL compound 2): 71±11% | cell survival (BEAS-2B cells; [6]): 38±6% | cell survival (HEK-293 cells; POS 1 μg/mL + 32 μg/mL compound 2): 80±8% | cell survival (HEK-293 cells; [6]): 40±6% | cell survival (HEK-293 cells; drug alone at 16 μg/mL): around 45±12% | CFU/mL at 24 h [3]: 10^8 CFU/mL | SMIC90 [4]: > 32 µg/mL | SMIC90 [5]: > 32 µg/mL
